Literature values in patent US5770699A, “Process for production of inhibited forms of activated blood factors” (COR Therapeutics, Inc., priority 1996, dated 1998).

Target: Factor Xa
Conditions: transient (reversible) inhibition of Factor Xa; stated as known; cited from earlier work

N=C(N)c1ccc2oc(CCc3cc4cc(C(=N)N)ccc4o3)cc2c1 [1,2-bis(5-amidino 2-benzofuranyl) ethane]
Ki: 570 nM
